Reference: patent publication US9670549B2, “Gene expression signatures of neoplasm responsiveness to therapy” (The United States of America, as represented by the …, priority 2011, dated 2017)

What was measured:
HDAC1 = HDAC1 (Homo sapiens, UniProt Q13547); settings: cited from earlier work
[1] = tested on: cleaved PARP, BCL-xL, Survivin; test: Western blot of apoptosis proteins (U266, L363 lysates); type: cell-based, human; settings: U266 or L363 lysates, 48 hours
Method: In sequential experiments, the first agent listed was added 24 hours prior to the addition of the second agent.
Western blot of control, single agent, and combination treated (D) L363 or (E) U266 cells at 48 hours.

HDAC2 = HDAC2 (Homo sapiens, UniProt Q92769); settings: cited from earlier work
HDAC2, sequence (Q92769 whole entry): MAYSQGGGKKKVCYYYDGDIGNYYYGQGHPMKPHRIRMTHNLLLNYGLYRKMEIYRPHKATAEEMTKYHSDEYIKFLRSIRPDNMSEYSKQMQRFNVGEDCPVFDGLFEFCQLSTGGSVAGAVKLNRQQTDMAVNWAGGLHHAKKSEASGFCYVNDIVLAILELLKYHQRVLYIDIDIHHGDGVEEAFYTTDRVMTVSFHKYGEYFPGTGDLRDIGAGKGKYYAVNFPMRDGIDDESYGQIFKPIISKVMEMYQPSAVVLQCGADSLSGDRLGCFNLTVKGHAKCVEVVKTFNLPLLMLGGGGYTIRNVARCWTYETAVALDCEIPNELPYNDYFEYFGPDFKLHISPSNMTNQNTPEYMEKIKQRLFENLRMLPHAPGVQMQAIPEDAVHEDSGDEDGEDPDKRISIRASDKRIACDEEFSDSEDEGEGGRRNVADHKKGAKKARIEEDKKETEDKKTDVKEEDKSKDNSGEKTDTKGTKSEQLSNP

RRM2, γH2AX = test: Western blot of L363 lysates for RRM2 and DNA damage marker; settings: L363, 48 hours; sirolimus 10 nM, entinostat 0.5 μM, Triapine 1 μM
Method: (§1) L363 cell viability after 48 hour treatment with triapine and/or sirolimus. Significance between treatments was determined by repeated measures ANOVA with the Bonferroni correction.

L363 cells = test: L363 cell viability after triapine and/or sirolimus; settings: L363, 48 hour treatment
Method: as §1

HDAC1, sequence (Q13547 whole entry): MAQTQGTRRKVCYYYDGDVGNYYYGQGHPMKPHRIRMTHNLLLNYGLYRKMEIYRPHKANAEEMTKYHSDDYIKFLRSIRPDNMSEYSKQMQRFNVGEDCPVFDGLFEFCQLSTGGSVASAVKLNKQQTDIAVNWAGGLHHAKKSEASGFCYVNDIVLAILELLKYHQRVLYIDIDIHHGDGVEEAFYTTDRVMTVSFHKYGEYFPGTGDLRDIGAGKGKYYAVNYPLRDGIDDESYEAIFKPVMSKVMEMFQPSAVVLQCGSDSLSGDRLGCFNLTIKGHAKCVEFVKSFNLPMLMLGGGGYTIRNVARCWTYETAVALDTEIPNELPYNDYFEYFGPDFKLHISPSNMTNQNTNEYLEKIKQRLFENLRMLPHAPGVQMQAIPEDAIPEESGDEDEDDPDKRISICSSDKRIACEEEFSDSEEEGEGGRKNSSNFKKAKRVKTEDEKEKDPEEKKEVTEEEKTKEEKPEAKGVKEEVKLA

| Compound | activity against HDAC1 (HDAC1) | affinity for HDAC1 (HDAC1) | PARP cleavage [1] | activity for HDAC2 (HDAC2) | DNA damage marker γH2AX (RRM2, γH2AX) | MM cell viability (L363 cells) |
| --- | --- | --- | --- | --- | --- | --- |
| Nc1ccccc1NC(=O)c1ccc(CNC(=O)OCc2cccnc2)cc1 [entinostat] | strong activity | high affinity | observed | weak activity |  |  |
| NC(=S)N/N=C/c1ncccc1N [triapine] |  |  |  |  | increased yH2AX | inhibited MM cell viability |
